Results as given in US20230242511A1, “FUSED PYRAZOLE AND IMIDAZOLE BASED COMPOUNDS AND USE THEREOF AS GLI1 INHIBITORS” (GLIXOGEN THERAPEUTICS LTD., priority 2020, published 2023).
Like-named read-outs stand apart in the source and are kept apart here. Each block holds one compound with its values, some of them ahead of it.

Experiments:
[1] = system: Gli1; assay: Gli1-Luciferase Reporter Assay (Shh Light 2 cells); type: cell-based, mouse
Protocol: Cell line: Shh Light 2 cell line which is based on NIH3T3 mouse fibroblast cell line genetically modified to stably express the Firefly Luciferase reporter gene under the transcription control of Gli 1 binding sequence and the Renila Luciferase gene under a control pRL-SV40 promoter was licensed from Johns Hopkins University (JHU).
Cell culture: Cells are cultured in Complete Medium [formulated as DMEM, 10% FBS, 1% sodium pyruvate, 1% L-glutamine, 0.4 mg/ml G418, 0.15 mg/ml Zeocin] until 80% confluence is achieved. Once sufficient confluency is achieved, cells are detached from the 10 cm culture dish using trypsin-EDTA, washed in Growth Medium [formulated as DMEM, 10% FBS, 1% sodium pyruvate, 1% L-glutamine, 1% PenStrep] and resuspended in fresh Growth Medium at a concentration of 4.3*10^5 cells/ml. To a white 96-well plate […] of cells suspension is transferred and incubated in a humified incubator at 37° C. with 5% CO2 overnight until the cells reach confluency the following day.
On the following day, a 13 point 1:1 dilution of a stock 20 mM Gli 1 inhibitor compound in DMSO is performed and […] of each diluted Gli1 inhibitor compound is diluted in […] Assay Medium [formulated as DMEM, 2% FBS, 1% sodium pyruvate, 1% L-glutamine, 1% PenStrep]. The Growth Medium is removed from the cell-plated 96-well plate and […] of the diluted Gli1 inhibitor is transferred to each well and plates are incubated at 37° C. and 5% CO2 for 30 minutes.
Then, the plates are removed from incubator and Purmorphamine (a Smoothened agonist to induce Hedgehog signaling and Gli1 activation in cells) at a final concentration of […] is added to each well and the plates are reinserted to the incubator for 24 hours incubation. The following day, Firefly and Renila Luciferase levels are measured using the Dual-Glo Luciferase system and the ratio between the Firefly and Renila is calculated for normalization of signal. The ratio of the signal in the treated cells is plotted vs. compound concentration and the IC50 value of each compound is calculated by generating a non-linear regression curve using the 4PL function in GraphPad Prism 8 software.
The primary screening assay is based on a NIH3T3 mouse fibroblast cell line genetically modified to stably express the Firefly Luciferase reporter gene under the transcription control of Gli1 binding sequence and the Renila Luciferase gene under a control pRL-SV40 promoter. This assay allows the determination of a compound's IC50 value in inhibiting Gli1 activity.

[2] = Pharmacokinetic Study; type: in vivo; conditions: for Cmax: in ng/mL (unit assumed)
Protocol: Compounds were formulated in 15% HP-b-CD in water (IV formulation was at pH=5.0 and PO was at pH=3.0). Blood was obtained from facial vein pre-dosing and at 0.083, 0.25, 0.5, 1, 2, 4, 8, 24 hours post dosing for a total of 9 time-points, semi-serial bleeding. For PO dosing, another group of animals (n=3) were terminated at 2 hours post dosing and brains were extracted to analyze brain exposure and calculate brain/plasma ratio. Lower limit of quantification (LLOQ) for brain and plasma samples was 1 ng/ml.

[3] = system: EAE mouse model; assay: Efficacy EAE model, MOG35-55/CFA in C57B16 mice; type: in vivo; conditions: daily 10 mg/Kg, until Day 28, vs vehicle
Protocol: (§1) N=12 for all groups except for dexamethasone which had n=5 (FIG. 1B).
Thirteen-weeks old female C57B16 mice were immunized on Day 1 with an emulsion of MOG35-55/CFA and injected with pertussis toxin to induce disease. At the start of clinical signs (Days 9-10), the animals were daily administered with Glx-077, Glx-088P3, clemastine fumarate (at 10 mg/Kg) or vehicle (15% HP-β-CD in water) until completion of experiment (Day 28). Mice administered with dexamethasone were used as a positive control group. Clinical score of the mice was measured daily. A graph, summarizing the results of this experiment is represented in FIG. 1B.

[4] = system: EAE mouse model; assay: Efficacy EAE model, PLP139-151/CFA in SJL/L mice; type: in vivo; conditions: daily 10 mg/Kg or 50 mg/Kg, until Day 57, vs vehicle
Protocol: as §1
Eight-weeks old female SJL/L mice were immunized on Day 1 with an emulsion of PLP139-151/CFA and injected with pertussis toxin to induce disease. At the start of clinical signs (Days 9-10), the animals were administered with compound 6 (Glx-077) at a daily dose of 10 mg/Kg or 50 mg/Kg, or with a vehicle (15% HP-β-CD in water) until completion of trial (Day 57). A graph, summarizing the results of this experiment is represented in FIG. 1A.

[5] = Mus musculus, Shh Light2, Shh Light 2 cell line, Purmorphamine-induced, 24 hours, read-out: Luciferase cell based IC50
[6] = Mus musculus, Shh Light2, in-vitro, read-out: concentration inhibiting 50% of Gli1 activity
[7] = Shh Light 2 cell line, Purmorphamine-induced, 24 hours, read-out: Luciferase cell based IC50

SMILES: Cn1c(-c2ccccc2Cl)nc2c1CN(Cc1cnc3ccccc3n1)CC2 [Compound 11]
IC50 [1, 6]: < 17 nM

SMILES: COc1cccc2c1CN(C1CCc3nn(-c4ccccc4Cl)c(C)c3C1)C2 (centres unmarked) [Glx-088P3]
IC50 [1, 7]: 0.18 nM
AUCINF-plasma ([2]; IV, 2 mg/Kg): 517 ng·h/mL
T½ ([2]; IV, 2 mg/Kg): 1.53 h
% F ([2]; PO, 10 mg/Kg): 38%
AUCINF-plasma ([2]; PO, 10 mg/Kg): 517 ng·h/mL
T½ ([2]; PO, 10 mg/Kg): 1.5 h
Brain levels 2 h post PO administration ([2]; PO, 10 mg/Kg): 123 ng/g
Brain/plasma ratio (2 h) ([2]; PO, 10 mg/Kg): 208%
Cmax ([2]; PO, 10 mg/Kg): 268
% F ([2]; PO, 30 mg/Kg): 65.6%
AUCINF-plasma ([2]; PO, 30 mg/Kg): 2674 ng·h/mL
T½ ([2]; PO, 30 mg/Kg): 1.69 h
Brain levels 2 h post PO administration ([2]; PO, 30 mg/Kg): 1104 ng/g
Brain/plasma ratio (2 h) ([2]; PO, 30 mg/Kg): 236%
Cmax ([2]; PO, 30 mg/Kg): 1199
clinical outcome / clinical score (FIG. 1B) [3]: improvements in clinical outcome

SMILES: Cn1c(-c2ccccc2Cl)nc2c1CN(Cc1nc3cccnc3o1)CC2 [Compound 6]
clinical outcome (FIG. 1A) [4]: improvements in clinical outcome
clinical outcome / clinical score (FIG. 1B) [3]: improvements in clinical outcome

SMILES: Cc1nc(CN2CCc3nc(-c4ccccc4Cl)n(C)c3C2)nc2ccccc12 [Compound 12]
IC50 ([1]; Mus musculus, Shh Light2, benzyl series compounds, read-out: in-vitro efficacy IC50): 5.6 nM

SMILES: Cn1c(-c2ccccc2Cl)nc2c1CN(Cc1ncnc3ccccc13)CC2 [Compound 13]
IC50 [1, 6]: < 17 nM

SMILES: COc1cccc2c1CN(C1CCc3nn(-c4ccccc4Cl)c(C)c3C1)C2 (centres unmarked) [Glx-088RS]
IC50 [1, 7]: 7.1 nM
AUCINF-plasma ([2]; PO, 10 mg/Kg): 748 ng·h/mL
T½ ([2]; PO, 10 mg/Kg): 1.99 h
Brain levels 2 h post PO administration ([2]; PO, 10 mg/Kg): 211 ng/g
Brain/plasma ratio (2 h) ([2]; PO, 10 mg/Kg): 129%
Cmax ([2]; PO, 10 mg/Kg): 698

SMILES: Cn1c(-c2ccccc2Cl)nc2c1CN(Cc1nc3ccccc3s1)CC2 [Compound 14]
IC50 [1, 6]: < 17 nM

Continued, values first:

IC50 [1, 5]: 430 nM
SMILES: COc1cccc2c1CN(C1CCc3nn(-c4ccccc4Cl)c(C)c3C1=O)C2 (centres unmarked) [Glx-402]

IC50 [1, 5]: 172 nM
SMILES: COc1cccc2c1CN([C@H]1CCc3nn(-c4ccccc4Cl)c(C)c3[C@@H]1O)C2 [Glx-344A]

IC50 [1, 5]: 12 nM
SMILES: Cc1c2c(nn1-c1ccccc1Cl)CCC(N1Cc3cccc(C#N)c3C1)C2 (centres unmarked) [Glx-322]

IC50 [1, 5]: 73 nM
SMILES: COc1cccc2c1CC(N1CCc3nn(-c4ccccc4Cl)c(C)c3C1)C2 (centres unmarked) [Glx-369]

IC50 [1, 5]: 16.7 nM
SMILES: COc1ccc(C#N)c2c1CN(C1CCc3nn(-c4ccccc4Cl)c(C)c3C1)C2 (centres unmarked) [Glx-341]

IC50 [1, 5]: 385 nM
SMILES: COc1cccc2c1CN(C1CCc3nn(-c4ccccc4Cl)c(C)c3[C@@H]1O)C2 (some centres unmarked) [Glx-344]

IC50 [1, 5]: 55 nM
SMILES: Cc1c2c(nn1-c1ccccc1Cl)CCC(N1Cc3c(F)ccc(C#N)c3C1)C2 (centres unmarked) [Glx-308]
